Test results: ChEMBL document CHEMBL1129222, “Anti-AIDS agents. 291. Anti-HIV activity of modified podophyllotoxin derivatives” (Bioorg Med Chem Lett, 1997); call rule not given here

How the values were obtained:
H9 [1] = experiment: Evaluation for anti-HIV activity using T cell line (H9).; format: functional, cell-based; settings: Homo sapiens
H9 [2] = experiment: Cytotoxicity against H9 cell line; format: functional, cell-based; settings: Homo sapiens
[3] = Therapeutic index (IC50/EC50); format: cell-based; settings: human, H9 cells; read-out: Therapeutic index
H9 [4] = experiment: The compound was evaluated for anti-HIV activity using T cell line (H9); No suppression; format: functional, cell-based, Homo sapiens
H9 [5] = experiment: The compound was evaluated for anti-HIV activity using T cell line (H9); settings: Homo sapiens
H9 [6] = experiment: as above; settings: Homo sapiens; remark: listed apart in the source
H9 [7] = experiment: The compound was evaluated for cytotoxicity against H9 cell line; Toxic; format: toxicity, cell-based, Homo sapiens

| Compound | EC50 (H9 [1]) | IC50 (H9 [2]) | selectivity ratio [3] | EC50 (H9 [4]) | EC50 (H9 [5]) | EC50 (H9 [6]) | IC50 (H9 [7]) |
| --- | --- | --- | --- | --- | --- | --- | --- |
| COc1cc([C@@H]2c3cc4c(cc3[C@@H](O)[C@H]3COC(=O)[C@H]23)OCO4)cc(N)c1N | 1700 nM | 6600 nM | 3.9 |  |  |  |  |
| CCS[C@@H]1c2cc3c(cc2[C@@H](c2cc(OC)c(O)c(OC)c2)[C@H]2C(=O)OC[C@@H]21)OCO3 |  | 1900 nM |  | Not Active |  |  |  |
| COc1cc2c(cc1OC)[C@@H](Nc1ccc([N+](=O)[O-])cc1)[C@H]1COC(=O)[C@@H]1[C@@H]2c1cc(OC)c(O)c(OC)c1 |  | 158 nM | > 158 |  | < 1 nM |  |  |
| CCOC(=O)c1ccc(N[C@@H]2c3cc(OC)c(OC)cc3[C@@H](c3cc(OC)c(O)c(OC)c3)[C@H]3C(=O)OC[C@@H]32)cc1 | < 1 nM | 120 nM | > 120 |  |  |  |  |
| COc1cc([C@@H]2c3cc4c(cc3C(=O)[C@H]3COC(=O)[C@H]23)OCO4)cc(OC)c1O | 800 nM | 1700 nM | 2.1 |  |  |  |  |
| CCS[C@@H]1c2cc3c(cc2[C@@H](c2cc(OC)c(OC)c(OC)c2)[C@H]2C(=O)OC[C@@H]21)OCO3 | 160 nM | 320 nM | 2 |  |  |  |  |
| COc1cc([C@@H]2c3cc(O)c(O)cc3[C@H](O)[C@H]3COC(=O)[C@H]23)cc(OC)c1O |  | 1850 nM |  | Not Active |  |  |  |
| COc1cc([C@@H]2c3cc(O)c(O)cc3[C@@H](O)[C@H]3COC(=O)[C@H]23)cc(OC)c1O |  | 45000 nM |  | Not Active |  |  |  |
| CCN(CC)[C@@H]1c2cc3c(cc2[C@@H](c2cc(OC)c(O)c(OC)c2)[C@H]2C(=O)OC[C@@H]21)OCO3.Cl |  | > 100000 nM |  | No supperssion |  |  |  |
| COc1cc2c(cc1OC)[C@@H](Nc1ccc(F)cc1)[C@H]1COC(=O)[C@@H]1[C@@H]2c1cc(OC)c(O)c(OC)c1 | < 1 nM | 166 nM | > 166 |  |  |  |  |
| COc1cc([C@@H]2c3cc4c(cc3[C@@H](Nc3ccc(F)cc3)[C@H]3COC(O)[C@H]23)OCO4)cc(OC)c1O (some centres not stated) | 450 nM | 1800 nM | 4 |  |  |  |  |
| COc1cc([C@@H]2c3cc4c(cc3[C@@H](Sc3ccc(O)cc3)[C@H]3COC(=O)[C@H]23)OCO4)cc(OC)c1O | 800 nM | 1700 nM | 2.1 |  |  |  |  |
| COc1cc([C@@H]2c3cc4c(cc3[C@@H](O)[C@H]3COC(=O)[C@H]23)OCO4)cc(OC)c1O [4'-DEMETHYLEPIPODOPHYLLOTOXIN] |  | 70 nM |  | Not Active |  |  |  |
| COc1cc2c(cc1OC)[C@@H](Nc1ccc(F)cc1)[C@H]1COC(=O)[C@@H]1[C@@H]2c1cc(OC)c(OC)c(OC)c1 | 2200 nM | 9700 nM | 4.4 |  |  |  |  |
| COc1cc([C@@H]2c3cc(O)c(O)cc3[C@@H](Nc3ccc(F)cc3)[C@H]3COC(=O)[C@H]23)cc(OC)c1O | 7000 nM | 29000 nM | 4.1 |  |  |  |  |
| COc1cc([C@@H]2c3cc4c(cc3[C@@H](Nc3ccc(F)cc3)[C@H]3COC[C@H]23)OCO4)cc(OC)c1O | 120 nM | 1500 nM | 12.5 |  |  |  |  |
| COc1cc([C@@H]2c3cc4c(cc3[C@@H](Nc3ccc([N+](=O)[O-])cc3)[C@H]3COC(=O)[C@H]23)OCO4)cc(OC)c1O | < 1.28 nM | 70 nM | 55.8 |  |  |  |  |
| COc1cc([C@@H]2c3cc4c(cc3C(=O)[C@H]3COC(=O)[C@H]23)OCO4)cc(O)c1O |  | 9000 nM | 3 |  |  | 3000 nM |  |
| CCN(CC)CCN[C@@H]1c2cc3c(cc2[C@@H](c2cc(OC)c(O)c(OC)c2)[C@H]2C(=O)OC[C@@H]21)OCO3 | 10000 nM | 8000 nM | 0.8 |  |  |  |  |
| Cc1cn([C@H]2C[C@H](N=[N+]=[N-])[C@@H](CO)O2)c(=O)[nH]c1=O [ZIDOVUDINE] | 9 nM | 500000 nM |  |  |  |  |  |
| COc1cc2c(cc1OC)[C@@H](Nc1ccc(C#N)cc1)[C@H]1COC(=O)[C@@H]1[C@@H]2c1cc(OC)c(O)c(OC)c1 | < 1 nM | 141 nM | > 141 |  |  |  |  |
| COc1cc([C@@H]2c3cc4c(cc3[C@@H](Nc3ccc(F)cc3)[C@H]3COC(=O)[C@H]23)OCO4)cc(OC)c1O | 100 nM | 1000 nM | 10 |  |  |  |  |
| COc1cc([C@@H]2c3cc4c(cc3[C@@H](Nc3ccc(F)cc3)[C@H]3COC(=O)[C@H]23)OCO4)cc(OC)c1OC | 450 nM | 1500 nM | 3.3 |  |  |  |  |
| COc1cc([C@@H]2c3cc4c(cc3[C@@H](Oc3ccc(F)cc3)[C@H]3COC(=O)[C@H]23)OCO4)cc(OC)c1O | 450 nM | 800 nM | 1.8 |  |  |  |  |
| COc1cc([C@@H]2c3cc4c(cc3[C@H](O)[C@H]3COC(=O)[C@H]23)OCO4)cc(OC)c1OC [PODOFILOX] |  |  |  |  |  |  | Toxic |
